#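 Cells were grown in 96-well plates and exposed to each compound for 48 hours at five concentrations; endpoints were interpolated linearly between bracketing concentrations, or set to the highest concentration if not reached. Here, GI50 denotes the concentration required for 50% inhibition of growth.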 Active and inactive are the calls of the source. No stated cut-off is given here; in the data, active = GI50 up to about 1.1 µM and inactive = higher.
# How the values were obtained:
# Experiment in all cases: NCI anticancer screen, dose series, 48 h
# K562 = test system: K562
# XF498 = test system: XF498
# COLO 205 = test system: COLO 205
# SNB-75 = test system: SNB-75
# LXFL 529 = test system: LXFL 529
# UO-31 = test system: UO-31
# DMS-114 = test system: DMS-114
# SF-539 = test system: SF-539
# SK-MEL-28 = test system: SK-MEL-28
# DLD-1 = test system: DLD-1
# TK-10 = test system: TK-10
# M19-MEL = test system: M19-MEL
# SK-MEL-2 = test system: SK-MEL-2
# SNB-19 = test system: SNB-19
# Hs-578T = test system: Hs-578T
# DMS-273 = test system: DMS-273
# NCI-H522 = test system: NCI-H522
# NCI-H226 = test system: NCI-H226
# SK-OV-3 = test system: SK-OV-3
# HCT-116 = test system: HCT-116
# KM12 = test system: KM12
# HL-60 = test system: HL-60
# LOX IMVI = test system: LOX IMVI
# Malme-3M = test system: Malme-3M
# ACHN = test system: ACHN
# DU-145 = test system: DU-145
# CAKI-1 = test system: CAKI-1
# OVCAR-4 = test system: OVCAR-4
# A498 = test system: A498
# OVCAR-3 = test system: OVCAR-3
# UACC-257 = test system: UACC-257
# EKVX = test system: EKVX
# CCRF-CEM = test system: CCRF-CEM
# MDA-MB-231 = test system: MDA-MB-231
# 786-0 = test system: 786-0
# MDA-N = test system: MDA-N
# RXF 631 = test system: RXF 631
# T47D = test system: T47D
# SF-268 = test system: SF-268
# SN12C = test system: SN12C
# MCF7 = test system: MCF7
# HCC 2998 = test system: HCC 2998
# IGROV-1 = test system: IGROV-1
# HOP-62 = test system: HOP-62
# OVCAR-8 = test system: OVCAR-8
# A549 = test system: A549
# RPMI-8226 = test system: RPMI-8226
# HT-29 = test system: HT-29
# HOP-18 = test system: HOP-18
# OVCAR-5 = test system: OVCAR-5
# SK-MEL-5 = test system: SK-MEL-5
# HOP-92 = test system: HOP-92
# NCI-H460 = test system: NCI-H460
# BT-549 = test system: BT-549
# NCI-H23 = test system: NCI-H23
# SNB-78 = test system: SNB-78
# RXF 393 = test system: RXF 393
# M14 = test system: M14
# SF-295 = test system: SF-295
# HCT-15 = test system: HCT-15
# U-251 = test system: U-251
# KM-20L2 = test system: KM-20L2
# UACC-62 = test system: UACC-62
# SR = test system: SR
# MOLT-4 = test system: MOLT-4
# MDA-MB-435 = test system: MDA-MB-435
# SW-620 = test system: SW-620
smiles,measurement,setting,value
C/C(=N\N=C(/S)N1CCCCCC1)c1cccc[n+]1[O-],GI50,K562,0.0883 µM (active)
same,GI50,XF498,5.27 µM (inactive)
same,GI50,COLO 205,0.499 µM (active)
same,GI50,SNB-75,10.5 µM (inactive)
same,GI50,LXFL 529,0.348 µM (active)
same,GI50,UO-31,7.55 µM (inactive)
same,GI50,DMS-114,0.0198 µM (active)
same,GI50,SF-539,4.54 µM (inactive)
same,GI50,SK-MEL-28,6.58 µM (inactive)
same,GI50,DLD-1,0.0279 µM (active)
same,GI50,TK-10,21.5 µM (inactive)
same,GI50,M19-MEL,8.39 µM (inactive)
same,GI50,SK-MEL-2,2.37 µM (inactive)
same,GI50,SNB-19,7.41 µM (inactive)
same,GI50,Hs-578T,33 µM (inactive)
same,GI50,DMS-273,1.87 µM (inactive)
same,GI50,NCI-H522,0.592 µM (active)
same,GI50,NCI-H226,7.69 µM (inactive)
same,GI50,SK-OV-3,20.8 µM (inactive)
same,GI50,HCT-116,0.433 µM (active)
same,GI50,KM12,4.52 µM (inactive)
same,GI50,HL-60,0.336 µM (active)
same,GI50,LOX IMVI,4.52 µM (inactive)
same,GI50,Malme-3M,1.6 µM (inactive)
same,GI50,ACHN,4.58 µM (inactive)
same,GI50,DU-145,31.5 µM (inactive)
same,GI50,CAKI-1,6.37 µM (inactive)
same,GI50,OVCAR-4,8.17 µM (inactive)
same,GI50,A498,21.6 µM (inactive)
same,GI50,OVCAR-3,0.61 µM (active)
same,GI50,UACC-257,1.33 µM (inactive)
same,GI50,EKVX,7.23 µM (inactive)
same,GI50,CCRF-CEM,0.109 µM (active)
same,GI50,MDA-MB-231,7.59 µM (inactive)
same,GI50,786-0,1.53 µM (inactive)
same,GI50,MDA-N,6.47 µM (inactive)
same,GI50,RXF 631,8.59 µM (inactive)
same,GI50,T47D,3.4 µM (inactive)
same,GI50,SF-268,9.29 µM (inactive)
same,GI50,SN12C,13.8 µM (inactive)
same,GI50,MCF7,2.64 µM (inactive)
same,GI50,HCC 2998,1.71 µM (inactive)
same,GI50,IGROV-1,1.91 µM (inactive)
same,GI50,HOP-62,1.12 µM (active)
same,GI50,OVCAR-8,3.12 µM (inactive)
same,GI50,A549,4.36 µM (inactive)
same,GI50,RPMI-8226,0.116 µM (active)
same,GI50,HT-29,0.31 µM (active)
same,GI50,HOP-18,18.2 µM (inactive)
same,GI50,OVCAR-5,21.4 µM (inactive)
same,GI50,SK-MEL-5,2.22 µM (inactive)
same,GI50,HOP-92,11.1 µM (inactive)
same,GI50,NCI-H460,1.8 µM (inactive)
same,GI50,BT-549,16 µM (inactive)
same,GI50,NCI-H23,5.82 µM (inactive)
same,GI50,SNB-78,11 µM (inactive)
same,GI50,RXF 393,18.4 µM (inactive)
same,GI50,M14,2.72 µM (inactive)
same,GI50,SF-295,5.3 µM (inactive)
same,GI50,HCT-15,0.845 µM
same,GI50,U-251,6.28 µM (inactive)
same,GI50,KM-20L2,0.839 µM (active)
same,GI50,UACC-62,1.88 µM (inactive)
same,GI50,SR,4.01 µM (inactive)
same,GI50,MOLT-4,0.129 µM (active)
same,GI50,MDA-MB-435,9.57 µM (inactive)
same,GI50,SW-620,1.64 µM (inactive)

# Reference: ChEMBL document CHEMBL1201862, “PubChem BioAssay data set” (2004)
